From PubChem BioAssay AID504555 (Johns Hopkins Ion Channel Center, 2011)
Active and inactive are the calls of the source.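 Rule for the calls: active = dose dependent inhibition of hERG heart potassium channel current within the tested dose range; inactive = the rest.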

What follows are molecules tested against Inward rectifier potassium channel 2 (Mus musculus) (UniProt P35561) (assay: hERG current block potency – CHO cells, automated electrophysiology, selectivity assay for Kir2.1 inhibitor project, SAR follow-up (AID 504555)). Conditions: automated patch clamp, tail current, at 30 µM (top of the series).
Inward rectifier potassium channel 2 (Mus musculus), sequence (P35561 whole entry, looked up): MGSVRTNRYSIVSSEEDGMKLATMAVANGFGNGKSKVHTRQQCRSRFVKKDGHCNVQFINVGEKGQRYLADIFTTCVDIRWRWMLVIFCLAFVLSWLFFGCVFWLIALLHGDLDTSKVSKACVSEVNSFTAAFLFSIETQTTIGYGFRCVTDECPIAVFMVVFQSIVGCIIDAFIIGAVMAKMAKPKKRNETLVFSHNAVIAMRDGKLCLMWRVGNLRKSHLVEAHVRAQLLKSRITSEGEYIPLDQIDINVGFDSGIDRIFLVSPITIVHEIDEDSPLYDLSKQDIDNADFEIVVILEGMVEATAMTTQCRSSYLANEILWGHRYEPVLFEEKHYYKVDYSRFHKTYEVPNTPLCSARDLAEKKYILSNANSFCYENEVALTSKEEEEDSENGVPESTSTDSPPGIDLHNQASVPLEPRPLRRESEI
In the case of `O=S(=O)(c1ccc(F)cc1)N1CCCc2ccccc21`, the “current change, negative = inhibition” value is reported as “inactive”.

Each molecule was assayed against Voltage-gated inwardly rectifying potassium channel KCNH2 (Homo sapiens) (UniProt Q12809) in the same assay as above. Conditions: automated patch clamp, tail current.
Voltage-gated inwardly rectifying potassium channel KCNH2 (Homo sapiens), sequence (Q12809 whole entry, looked up): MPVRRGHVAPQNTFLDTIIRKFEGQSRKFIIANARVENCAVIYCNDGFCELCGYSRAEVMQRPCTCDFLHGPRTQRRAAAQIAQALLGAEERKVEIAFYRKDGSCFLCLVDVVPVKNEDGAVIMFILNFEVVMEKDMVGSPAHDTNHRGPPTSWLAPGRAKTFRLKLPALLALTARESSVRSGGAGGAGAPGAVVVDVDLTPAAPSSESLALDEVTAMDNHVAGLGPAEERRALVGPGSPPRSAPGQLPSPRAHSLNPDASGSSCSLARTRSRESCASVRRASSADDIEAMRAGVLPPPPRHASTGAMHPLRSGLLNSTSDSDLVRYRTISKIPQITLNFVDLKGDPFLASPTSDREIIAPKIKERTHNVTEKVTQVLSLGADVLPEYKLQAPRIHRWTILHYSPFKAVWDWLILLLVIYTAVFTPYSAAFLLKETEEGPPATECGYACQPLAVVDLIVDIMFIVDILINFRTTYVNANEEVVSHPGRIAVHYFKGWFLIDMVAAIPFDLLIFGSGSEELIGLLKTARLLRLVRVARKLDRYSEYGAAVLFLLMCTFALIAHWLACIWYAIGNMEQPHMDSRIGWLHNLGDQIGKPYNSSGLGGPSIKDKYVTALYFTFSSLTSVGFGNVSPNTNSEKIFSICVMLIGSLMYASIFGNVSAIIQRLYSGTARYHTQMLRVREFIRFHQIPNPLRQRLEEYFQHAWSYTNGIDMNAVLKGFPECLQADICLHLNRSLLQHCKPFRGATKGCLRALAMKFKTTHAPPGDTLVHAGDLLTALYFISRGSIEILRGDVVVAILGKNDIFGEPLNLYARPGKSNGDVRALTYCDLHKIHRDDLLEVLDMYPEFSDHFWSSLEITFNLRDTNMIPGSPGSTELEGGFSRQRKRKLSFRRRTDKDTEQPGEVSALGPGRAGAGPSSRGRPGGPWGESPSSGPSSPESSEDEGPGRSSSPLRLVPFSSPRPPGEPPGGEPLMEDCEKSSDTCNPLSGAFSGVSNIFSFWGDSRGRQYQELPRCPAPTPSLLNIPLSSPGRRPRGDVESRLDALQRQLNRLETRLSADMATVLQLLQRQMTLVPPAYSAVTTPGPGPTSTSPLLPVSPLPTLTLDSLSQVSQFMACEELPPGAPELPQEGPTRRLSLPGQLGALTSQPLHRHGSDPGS
`CC(O)CNCCCOc1cccc(Oc2ccccc2)c1` (centres undefined) was tested, and the IC50 was 6.96 µM. Molecule `C[C@H](NS(=O)(=O)c1ccc(Br)cc1)c1ccccc1` has an IC50 of 17.6 µM. Molecule `Cc1noc(C)c1COC(=O)CCN1c2ccccc2Sc2ccccc21` has an IC50 of 29.1 µM. `C[C@@H](NS(=O)(=O)c1cccc(Br)c1)c1ccccc1` gave an IC50 of 17.6 µM. Molecule `Cc1ccc2nc(N3CCN(CCO)CC3)nc(-c3ccccc3)c2c1` has an IC50 of 2.9 µM. `c1ccc(COc2ccc(OCCCNC3CCCC3)cc2)cc1` was tested, and the IC50 was 2.19 µM. For `Cc1ccc(S(=O)(=O)N[C@@H](C)c2ccccc2)cc1`, the IC50 was 27.6 µM. With `Cc1ccc(Nc2cc(C)nc3c(C)cccc23)cc1` the IC50 was 2.33 µM. Molecule `C[C@@H](NS(=O)(=O)c1ccc(Cl)cc1)c1ccccc1` has an IC50 of 19.5 µM. Work on `C[C@H](NS(=O)(=O)c1cccc(Br)c1)c1ccccc1` yielded an IC50 of 10.2 µM. Work on `c1ccc(CNc2c3ccccc3nc3ccccc23)cc1` yielded an IC50 of 0.433 µM. `Cc1ccc2nc(NCc3ccccc3)[nH]c2c1` was tested, and the IC50 was 13 µM. `Cc1ccc(C)c(OCCCNCc2ccccc2)c1` showed an IC50 of 19.3 µM.
